In US10081634B2, “Heterocyclic compound” (Daewoong Pharmaceutical Co., Ltd., priority 2014, dated 2018):
Where two headings read alike, the source gives them in different places.

Tests used:
[1] = molecular target: T1, PRS (prolyl-tRNA synthetase) (Homo sapiens, UniProt P07814); test: In vitro PRS enzyme activity inhibition experiment ([3H]proline, liquid scintillation); format: biochemical
T1 construct: the portion corresponding to PRS in cDNA of EPRS was subcloned; made in house
T1 sequence (P07814 1007-1512 limits assumed): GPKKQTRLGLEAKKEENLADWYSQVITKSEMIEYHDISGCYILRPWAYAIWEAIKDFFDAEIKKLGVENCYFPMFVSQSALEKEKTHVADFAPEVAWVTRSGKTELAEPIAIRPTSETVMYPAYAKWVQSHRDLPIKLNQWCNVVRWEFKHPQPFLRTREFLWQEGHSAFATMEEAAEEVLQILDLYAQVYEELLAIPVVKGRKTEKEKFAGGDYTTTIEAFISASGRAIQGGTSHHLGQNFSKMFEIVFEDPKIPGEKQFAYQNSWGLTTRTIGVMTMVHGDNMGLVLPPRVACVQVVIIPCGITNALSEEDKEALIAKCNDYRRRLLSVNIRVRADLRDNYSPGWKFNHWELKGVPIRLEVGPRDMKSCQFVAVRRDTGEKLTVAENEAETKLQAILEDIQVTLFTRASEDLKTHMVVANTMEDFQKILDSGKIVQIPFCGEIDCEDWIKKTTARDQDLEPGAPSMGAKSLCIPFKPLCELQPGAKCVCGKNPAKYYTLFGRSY
Description: In order to confirm the biological activities of the compounds prepared in Examples, % inhibition or IC50 values of PRS enzyme ([…]) activities were calculated.
Specifically, the portion corresponding to PRS in cDNA of EPRS was subcloned, and the obtained high-purity PRS protein was purified and used in the experiment. The compounds (1 μM) prepared in Examples were added into the reaction buffer (20 mM KPO4 (pH 7.4), 6 mM MgAc, 5 mM ATP, […] tRNA, 0.5 mM DTT, 20 mCi[^3H]proline (1 mCi/mL)) and allowed to react at 37° C. for 5 to 10 minutes. The reaction was terminated with 3M paper that was previously dried by addition of 5% TCA. The radioactivity was measured using a liquid scintillation counter.
IC50 values of the respective compounds were calculated and analyzed using Microsoft Excel or Sigma Plot 8.0. In Table 1, the results are divided into A, B and C according to the range of IC50. The case where the derived IC50 is 100 nM or less is represented by “A”, the case where the IC50 is 100 to 500 nM is represented by “B”, and the case where the IC50 is 500 nM or higher is represented by “C”.

[2] = system: NCI-H460 cells; test: Cancer cell growth inhibition experiment (MTT assay); format: cell-based; conditions: Homo sapiens; NCI-H460 lung cancer cell line; 48 hours treatment; MTT cell viability
Description: NCI-H460 cells, lung cancer cell lines, were cultured in 5% CO2, 37° C. incubator using a flask for 75 cm^2 tissue culture. 96-well plates were used for the evaluation. These were prepared by differently applying at concentrations in the range of 6,000 to 12,000 cells/well according to the growth rate of the cell lines. The medium containing 5% FBS were dispensed in 200 μL/well and used. The medium were cultured for 24 hours. After confirming the cell status and dispensing form of a 96-well plate under a microscope, they were used for subsequent experiments. The compounds were evaluated at concentrations of 100, 30, 10, 3, 1, 0.3, 0.03, 0.01 μM. After removing the existing medium, the compounds with various concentrations were treated in an amount of 200 μL/well. The compounds-treated plates were further cultured for 48 hours, and the cell viabilities were measured by MTT assay to calculate IC50 values.
% Inhibition and IC50 values of the respective compounds were calculated and analyzed using Sigma Plot 8.0. The case where the derived IC50 is 5 μM or less is represented by “A”, the case where the IC50 is 5 to 30 μM is represented by “B”, and the case where the IC50 is 30 μM or higher is represented by “C”.

[3] = purified PRS protein subcloned from EPRS cDNA, 37° C., 5 to 10 minutes, read-out: PRS IC50

Row | IC50 [1, 3] [nM] | IC50 [2] [µM] | Compound | IC50 [1] [nM]
1 | < 100 | 5 to 30 | O=C(C[C@H]1NCCC[C@@H]1O)Cn1cnc2ccc(C(F)(F)F)cc21 [Example 7, 1-((2R,3S)-3-hydroxypiperidin-2-yl)-3-(6-(trifluoromethyl)-1H-benzo[d]imidazol-1-yl)propan-2-one] | –
2 | < 100 | 5 to 30 | OC(C[C@H]1NCCC[C@@H]1O)Cn1cnc2c(Cl)c(Br)ccc21 (stereo partly drawn) [Example 71, (2R,3S)-2-(3-(5-bromo-4-chloro-1H-benzo[d]imidazol-1-yl)-2-hydroxypropyl)piperidin-3-ol] | –
3 | > 500 | ≥ 30 | O[C@H]1CCCN[C@@H]1CC(F)(F)Cn1cnc2cc(Cl)c(Cl)cc21 [Example 82, (2R,3S)-2-(3-(5,6-dichloro-1H-benzo[d]imidazol-1-yl)-2,2-difluoropropyl)piperidin-3-ol] | –
4 | 100 to 500 | 5 to 30 | O=C(C[C@H]1NCCC[C@@H]1O)Cn1cnc2c(Cl)c(F)ccc21 [Example 21, 1-(4-chloro-5-fluoro-1H-benzo[d]imidazol-1-yl)-3-((2R,3S)-3-hydroxypiperidin-2-yl)propan-2-one] | –
5 | > 500 | ≥ 30 | NCc1nc2cc(Cl)c(Cl)cc2n1CC(=O)C[C@H]1NCCC[C@@H]1O [Example 52, 1-(2-(aminomethyl)-5,6-dichloro-1H-benzo[d]imidazol-1-yl)-3-((2R,3S)-3-hydroxypiperidin-2-yl)propan-2-one] | –
6 | > 500 | ≥ 30 | O=C(C[C@H]1NCCC[C@@H]1O)Cn1c(CO)nc2cccc(OC(F)(F)F)c21 [Example 61, 1-(2-(hydroxymethyl)-7-(trifluoromethoxy)-1H-benzo[d]imidazol-1-yl)-3-((2R,3S)-3-hydroxypiperidin-2-yl)propan-2-one] | –
7 | 100 to 500 | ≥ 30 | O=C(C[C@H]1NCCC[C@@H]1O)Cn1ccc2ccnc(Cl)c21 [Example 93, 1-(7-chloro-1H-pyrrolo[2,3-c]pyridin-1-yl)-3-((2R,3S)-3-hydroxypiperidin-2-yl)propan-2-one] | –
8 | < 100 | 5 to 30 | Cc1cc(Br)cc2c1ncn2CC(=O)C[C@H]1NCCC[C@@H]1O [Example 23, 1-(6-bromo-4-methyl-1H-benzo[d]imidazol-1-yl)-3-((2R,3S)-3-hydroxypiperidin-2-yl)propan-2-one] | –
9 | < 100 | ≤ 5 | Cc1c(Cl)cnc2c1ncn2CC(=O)C[C@H]1NCCC[C@@H]1O [Example 39, 1-(6-chloro-7-methyl-3H-imidazo[4,5-b]pyridin-3-yl)-3-((2R,3S)-3-hydroxypiperidin-2-yl)propan-2-one] | –
10 | < 100 | 5 to 30 | O=C(C[C@H]1NCCC[C@@H]1O)Cn1cnc2ccc(Br)cc21 [Example 5, 1-(6-bromo-1H-benzo[d]imidazol-1-yl)-3-((2R,3S)-3-hydroxypiperidin-2-yl)propan-2-one] | –
11 | < 100 | 5 to 30 | O=C(C[C@H]1NCCC[C@@H]1O)Cn1cnc2ccc(Br)nc21 [Example 35, 1-(5-bromo-3H-imidazo[4,5-b]pyridin-3-yl)-3-((2R,3S)-3-hydroxypiperidin-2-yl)propan-2-one] | –
12 | 100 to 500 | ≥ 30 | OCc1nc2cc(Cl)c(Cl)cc2n1CC(O)C[C@H]1NCCC[C@@H]1O (stereo partly drawn) [Example 88, (2R,3S)-2-(3-(5,6-dichloro-2-(hydroxymethyl)-1H-benzo[d]imidazol-1-yl)-2-hydroxypropyl)piperidin-3-ol] | –
13 | < 100 | 5 to 30 | O=C(C[C@H]1NCCC[C@@H]1O)Cn1cnc2cc(Br)c(Br)cc21 [Example 27, 1-(5,6-dibromo-1H-benzo[d]imidazol-1-yl)-3-((2R,3S)-3-hydroxypiperidin-2-yl)propan-2-one] | –
14 | > 500 | ≥ 30 | Cc1ccc2c(nc(CO)n2CC(=O)C[C@H]2NCCC[C@@H]2O)c1C [Example 62, 1-(2-(hydroxymethyl)-4,5-dimethyl-1H-benzo[d]imidazol-1-yl)-3-((2R,3S)-3-hydroxypiperidin-2-yl)propan-2-one] | –
15 | < 100 | ≤ 5 | O=C(C[C@H]1NCCC[C@@H]1O)Cn1cnc2cc(F)c(Br)cc21 [Example 26, 1-(6-bromo-5-fluoro-1H-benzo[d]imidazol-1-yl)-3-((2R,3S)-3-hydroxypiperidin-2-yl)propan-2-one] | –
16 | < 100 | 5 to 30 | Cc1cc(Cl)cc2c1ncn2CC(=O)C[C@H]1NCCC[C@@H]1O [Example 24, 1-(6-chloro-4-methyl-1H-benzo[d]imidazol-1-yl)-3-((2R,3S)-3-hydroxypiperidin-2-yl)propan-2-one] | –
17 | > 500 | ≥ 30 | O=C(C[C@H]1NCCC[C@@H]1O)Cn1cnc2nc(C(F)(F)F)ccc21 [Example 30, 1-((2R,3S)-3-hydroxypiperidin-2-yl)-3-(5-(trifluoromethyl)-1H-imidazo[4,5-b]pyridin-1-yl)propan-2-one] | –
18 | < 100 | 5 to 30 | O=C(C[C@H]1NCCC[C@@H]1O)Cn1cnc2c(C(F)(F)F)c(Br)ccc21 [Example 18, 1-(5-bromo-4-(trifluoromethyl)-1H-benzo[d]imidazol-1-yl)-3-((2R,3S)-3-hydroxypiperidin-2-yl)propan-2-one] | –
19 | < 100 | 5 to 30 | O=C(C[C@H]1NCCC[C@@H]1O)Cn1cnc2ccc(Cl)cc21 [Example 3, 1-(6-chloro-1H-benzo[d]imidazol-1-yl)-3-((2R,3S)-3-hydroxypiperidin-2-yl)propan-2-one] | –
20 | < 100 | ≤ 5 | O=C(C[C@H]1NCCC[C@@H]1O)Cn1cnc2c(Cl)c(Br)ccc21 [Example 22, 1-(5-bromo-4-chloro-1H-benzo[d]imidazol-1-yl)-3-((2R,3S)-3-hydroxypiperidin-2-yl)propan-2-one] | –
21 | > 500 | ≥ 30 | O=C(C[C@H]1NCCC[C@@H]1O)Cn1c(CO)nc2cc(OC(F)(F)F)ccc21 [Example 60, 1-(2-(hydroxymethyl)-5-(trifluoromethoxy)-1H-benzo[d]imidazol-1-yl)-3-((2R,3S)-3-hydroxypiperidin-2-yl)propan-2-one] | –
22 | 100 to 500 | ≥ 30 | O=C(C[C@H]1NCCC[C@@H]1O)Cn1nnc2cc(Cl)ccc21 [Example 99, 1-(5-chloro-1H-benzo[d][1,2,3]triazol-1-yl)-3-((2R,3S)-3-hydroxypiperidin-2-yl)propan-2-one] | –
23 | 100 to 500 | 5 to 30 | O=C(C[C@H]1NCCC[C@@H]1O)Cn1cnc2c(F)c(F)ccc21 [Example 11, 1-(4,5-difluoro-1H-benzo[d]imidazol-1-yl)-3-((2R,3S)-3-hydroxypiperidin-2-yl)propan-2-one] | –
24 | > 500 | ≥ 30 | CN(C)Cc1nc2cc(Cl)c(Cl)cc2n1CC(=O)C[C@H]1NCCC[C@@H]1O [Example 51, 1-(5,6-dichloro-2-((dimethylamino)methyl)-1H-benzo[d]imidazol-1-yl)-3-((2R,3S)-3-hydroxypiperidin-2-yl)propan-2-one] | –
25 | < 100 | ≥ 30 | Cc1c(Cl)ccc2ncn(CC(=O)C[C@H]3NCCC[C@@H]3O)c12 [Example 28, 1-(6-chloro-7-methyl-1H-benzo[d]imidazol-1-yl)-3-((2R,3S)-3-hydroxypiperidin-2-yl)propan-2-one] | –

Row | Compound | IC50 [1, 3] [nM] | IC50 [2] [µM] | IC50 [1] [nM]
26 | O=C(C[C@H]1NCCC[C@@H]1O)Cn1cnc2c(Cl)c(Br)cnc21 [Example 42, 1-(6-bromo-7-chloro-3H-imidazo[4,5-b]pyridin-3-yl)-3-((2R,3S)-3-hydroxypiperidin-2-yl)propan-2-one] | – | ≤ 5 | < 100
